In US4220644A, “7-Acylamino-3-(substituted tetrazolyl thiomethyl) cephalosporins” (SmithKline Corporation, priority 1976, dated 1980):
Values after ≈ are worked out from the molar mass of the structure shown.

Experiments:
E. coli 12140 = assay: In vivo mouse protection (Table 2), E. coli 12140
Excerpt: (§1) Compound names corresponding to numbers are given in the experimental section. For comparative purposes, data for cephamandole, which is 7-mandelamido-3-(1-methyltetrazol-5-ylthiomethyl)-3-cephem-4-carboxylic acid, is also given in Tables 1 and 2.

Proteus morgani 179 = assay: MIC in vitro (Table 1), Proteus morgani 179; type: cell-based; conditions: read-out: MIC
Excerpt: as §1

S. aureus SK 23390 = assay: MIC in vitro (Table 1), S. aureus SK 23390; type: cell-based; conditions: Staphylococcus aureus, SK23390, in vitro, S. aureus SK 23390; read-out: MIC
Excerpt: as §1

Kleb. pneumo. SK 4200 = assay: MIC in vitro (Table 1), Kleb. pneumo. SK 4200; type: cell-based; conditions: in vitro, Kleb. pneumo. SK 4200; read-out: MIC
Excerpt: as §1

E. coli SK 12140 = assay: MIC in vitro (Table 1), E. coli SK 12140; type: cell-based; conditions: Escherichia coli, SK12140, in vitro, read-out: MIC
Excerpt: as §1

Shigella HH 117 = assay: MIC in vitro (Table 1), Shigella HH 117; type: cell-based; conditions: Shigella, HH117, in vitro
Excerpt: as §1, with “The compounds of Formula I have antibacterial activity against both Gram-positive and Gram-negative organisms. […] Compound” for “Compound”

[1] = system: Entero. aerog. ATCC 13048; assay: MIC in vitro (Table 1), Entero. aerog. ATCC 13048; type: cell-based; conditions: in vitro, Entero. aerog. ATCC 13048; read-out: MIC
Excerpt: as §1

S. aureus HH 127 = assay: MIC in vitro (Table 1), S. aureus HH 127; type: cell-based; conditions: Staphylococcus aureus, HH127, in vitro, S. aureus HH 127; read-out: MIC
Excerpt: as §1

Kleb. pneumo. 4200 = assay: In vivo mouse protection (Table 2), Kleb. pneumo. 4200
Excerpt: as §1

Serra. Marc. ATCC 13880 = assay: MIC in vitro (Table 1), Serra. Marc. ATCC 13880; type: cell-based; conditions: in vitro, Serra. Marc. ATCC 13880; read-out: MIC
Excerpt: as §1

Kleb. pneumo. SK 1200 = assay: MIC in vitro (Table 1), Kleb. pneumo. SK 1200; type: cell-based; conditions: read-out: MIC
Excerpt: as §1

E. coli HH 33779 = assay: MIC in vitro (Table 1), E. coli HH 33779; type: cell-based; conditions: Escherichia coli, HH33779, in vitro, E. coli HH 33779; read-out: MIC
Excerpt: as §1

Salmonella ATCC 12176 = assay: MIC in vitro (Table 1), Salmonella ATCC 12176; type: cell-based; conditions: Salmonella, ATCC12176, in vitro
Excerpt: as §1, with “The compounds of Formula I have antibacterial activity against both Gram-positive and Gram-negative organisms. […] Compound” for “Compound”

Pseudo. sp. HH 63 = assay: MIC in vitro (Table 1), Pseudo. sp. HH 63; type: cell-based
Excerpt: as §1, with “The compounds of Formula I have antibacterial activity against both Gram-positive and Gram-negative organisms. […] Compound” for “Compound”

Entero. cloacae HH 31254 = assay: MIC in vitro (Table 1), Entero. cloacae HH 31254; type: cell-based; conditions: Enterobacter cloacae, HH31254, in vitro, Entero. cloacae HH 31254; read-out: MIC
Excerpt: as §1

S. villaluz = assay: MIC in vitro (Table 1), S. villaluz; type: cell-based
Excerpt: as §1, with “The compounds of Formula I have antibacterial activity against both Gram-positive and Gram-negative organisms. […] Compound” for “Compound”

Strep. Faecalis HH 34358 = assay: MIC in vitro (Table 1), Strep. Faecalis HH 34358; type: cell-based; conditions: Enterococcus faecalis, in vitro, Strep. Faecalis HH 34358; read-out: MIC
Excerpt: as §1

## Cn1nnnc1SCC1=C(C(=O)O)N2C(=O)C(NC(=O)C(O)c3ccccc3)[C@H]2SC1 (stereo partly shown) [cephamandole, 7-mandelamido-3-(1-methyltetrazol-5-ylthiomethyl)-3-cephem-4-carboxylic acid, reference compound]
E. coli 12140; Escherichia coli, 12140, po, E. coli 12140, p.o.
  ED50: 28 mg/kg
E. coli 12140; Escherichia coli, 12140, sc, E. coli 12140, s.c.
  ED50: < 2 mg/kg
Proteus morgani 179
  MIC: 1.3 µg/mL (≈ 2.81 µM)
S. aureus SK 23390
  MIC: 0.6 µg/mL (≈ 1.3 µM)
Kleb. pneumo. SK 4200
  MIC: 1.1 µg/mL (≈ 2.38 µM)
E. coli SK 12140
  MIC: 1.1 µg/mL (≈ 2.38 µM)
Shigella HH 117
  MIC: 0.2 µg/mL (≈ 0.432 µM)
[1]
  MIC: 2.9 µg/mL (≈ 6.27 µM)
S. aureus HH 127
  MIC: 1 µg/mL (≈ 2.16 µM)
Kleb. pneumo. 4200; po, Kleb. pneumo. 4200, p.o.
  ED50: > 50 mg/kg
Kleb. pneumo. 4200; sc, Kleb. pneumo. 4200, s.c.
  ED50: 0.96 mg/kg
Serra. Marc. ATCC 13880
  MIC: 13 µg/mL (≈ 28.1 µM)
Kleb. pneumo. SK 1200
  MIC: 0.6 µg/mL (≈ 1.3 µM)
E. coli HH 33779
  MIC: 2.6 µg/mL (≈ 5.62 µM)
Salmonella ATCC 12176
  MIC: 0.6 µg/mL (≈ 1.3 µM)
Pseudo. sp. HH 63
  MIC: > 200 µg/mL
Entero. cloacae HH 31254
  MIC: 0.7 µg/mL (≈ 1.51 µM)
S. villaluz
  MIC: 8 µg/mL (≈ 17.3 µM)
Strep. Faecalis HH 34358
  MIC: 2.3 µg/mL (≈ 4.97 µM)
